Test system: 242566-281-R-J2-PDC complex spheroid viability
Test: Anticancer human tumor 242566-281-R-J2-PDC patient-derived pancreatic carcinoma cell line growth inhibition [RAS]
Conditions: for IC50: curve of first compound; for viability, T/C: stronger effect = lower value
Method in brief: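 Agents were tested in combination matrices in half-log decrements from a top concentration at or near clinical Cmax (10 microM if undetermined). Targets were multi-cell spheroids of tumour lines plus HUVEC and MSC stromal cells.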

[1] = second compound 0.0316 µM, first compound 0.0316 µM
[2] = second compound 0.0316 µM, first compound 0.1 µM
[3] = second compound 0.0316 µM, first compound 0.316 µM
[4] = second compound 0.0316 µM, first compound 1 µM
[5] = second compound 0.0316 µM, first compound 3.16 µM
[6] = second compound 0.0316 µM, first compound 10 µM
[7] = second compound 0.1 µM, first compound 0.0316 µM
[8] = second compound 0.1 µM, first compound 0.1 µM
[9] = second compound 0.1 µM, first compound 0.316 µM
[10] = second compound 0.1 µM, first compound 1 µM
[11] = second compound 0.1 µM, first compound 3.16 µM
[12] = second compound 0.1 µM, first compound 10 µM
[13] = second compound 0.316 µM, first compound 0.0316 µM
[14] = second compound 0.316 µM, first compound 0.1 µM
[15] = second compound 0.316 µM, first compound 0.316 µM
[16] = second compound 0.316 µM, first compound 1 µM
[17] = second compound 0.316 µM, first compound 3.16 µM
[18] = second compound 0.316 µM, first compound 10 µM
[19] = second compound 1 µM, first compound 0.0316 µM
[20] = second compound 1 µM, first compound 0.1 µM
[21] = second compound 1 µM, first compound 0.316 µM
[22] = second compound 1 µM, first compound 1 µM
[23] = second compound 1 µM, first compound 3.16 µM
[24] = second compound 1 µM, first compound 10 µM
[25] = second compound 3.16 µM, first compound 0.0316 µM
[26] = second compound 3.16 µM, first compound 0.1 µM
[27] = second compound 3.16 µM, first compound 0.316 µM
[28] = second compound 3.16 µM, first compound 1 µM
[29] = second compound 3.16 µM, first compound 3.16 µM
[30] = second compound 3.16 µM, first compound 10 µM
[31] = second compound 10 µM, first compound 0.0316 µM
[32] = second compound 10 µM, first compound 0.1 µM
[33] = second compound 10 µM, first compound 0.316 µM
[34] = second compound 10 µM, first compound 1 µM
[35] = second compound 10 µM, first compound 3.16 µM
[36] = second compound 10 µM, first compound 10 µM
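Further: spheroids exposed to compound for 7 days before readout.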
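Wherever viability, T/C is given: 100% = DMSO vehicle control wells.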

`CCC(CC)c1cc(NC2CCC(N)C2)n2nccc2n1` (stereo not drawn) + C#Cc1c(F)ccc2cc(O)cc(-c3ncc4c(N5CC6CCC(C5)N6)nc(OCC56CCCN5CC(F)C6)nc4c3F)c12 was tested, and the IC50 (second compound 0.0316 µM) was 2610 nM, the IC50 (second compound 0.1 µM) was 1890 nM and the IC50 (second compound 0.316 µM) was 1450 nM. The IC50 (second compound 1 µM) was 893 nM, the IC50 (second compound 3.16 µM) was 1220 nM and the IC50 (second compound 10 µM) was 1170 nM. It also gave a viability, T/C [1] of 85.9%, a viability, T/C [2] of 109% and a viability, T/C [3] of 107%. For the same molecule, the viability, T/C [4] was 88.9%, the viability, T/C [5] was 42.2% and the viability, T/C [6] was 1.05%. For the same molecule, the viability, T/C [7] was 79.1%, the viability, T/C [8] was 92.1% and the viability, T/C [9] was 84.7%. For the same molecule, the viability, T/C [10] was 69.3%, the viability, T/C [11] was 33.9% and the viability, T/C [12] was 0.89%. For the same molecule, the viability, T/C [13] was 83.6%, the viability, T/C [14] was 85.5% and the viability, T/C [15] was 73.3%. For the same molecule, the viability, T/C [16] was 63.4%, the viability, T/C [17] was 26.3% and the viability, T/C [18] was 0.98%. For the same molecule, the viability, T/C [19] was 68.2%, the viability, T/C [20] was 67.6% and the viability, T/C [21] was 58.5%. For the same molecule, the viability, T/C [22] was 50.6%, the viability, T/C [23] was 14.8% and the viability, T/C [24] was 0.85%. For the same molecule, the viability, T/C [25] was 58%, the viability, T/C [26] was 60.2% and the viability, T/C [27] was 56.1%. It also gave a viability, T/C [28] of 58.6%, a viability, T/C [29] of 11.1% and a viability, T/C [30] of 0.86%. The viability, T/C [31] was 59.8%, the viability, T/C [32] was 54.8% and the viability, T/C [33] was 52.3%. The viability, T/C [34] was 58.1%, the viability, T/C [35] was 11.5% and the viability, T/C [36] was 0.55%.

Molecule `O=C(c1ccc(F)c(F)c1Nc1ccc(I)cc1F)N1CC(O)([C@@H]2CCCCN2)C1` + C#Cc1c(F)ccc2cc(O)cc(-c3ncc4c(N5CC6CCC(C5)N6)nc(OCC56CCCN5CC(F)C6)nc4c3F)c12 has an IC50 (second compound 0.0316 µM) of 83.3 nM, an IC50 (second compound 0.1 µM) of 56 nM and an IC50 (second compound 0.316 µM) of 25.2 nM. For the same molecule, the IC50 (second compound 1 µM) was 8.45 nM, the IC50 (second compound 3.16 µM) was 4.18 nM and the IC50 (second compound 10 µM) was < 3.16 nM. The viability, T/C (second compound 0.0316 µM, first compound 0.00316 µM) was 89.3%, the viability, T/C (second compound 0.0316 µM, first compound 0.01 µM) was 90.4% and the viability, T/C [1] was 69.1%. The viability, T/C [2] was 47.9%, the viability, T/C [3] was 38.6% and the viability, T/C [4] was 44.2%. The viability, T/C (second compound 0.1 µM, first compound 0.00316 µM) was 76.1%, the viability, T/C (second compound 0.1 µM, first compound 0.01 µM) was 73.6% and the viability, T/C [7] was 57.7%. It also gave a viability, T/C [8] of 42%, a viability, T/C [9] of 40.9% and a viability, T/C [10] of 38.5%. The viability, T/C (second compound 0.316 µM, first compound 0.00316 µM) was 73%, the viability, T/C (second compound 0.316 µM, first compound 0.01 µM) was 59.7% and the viability, T/C [13] was 49.9%. The viability, T/C [14] was 37.3%, the viability, T/C [15] was 32.2% and the viability, T/C [16] was 39.9%. The viability, T/C (second compound 1 µM, first compound 0.00316 µM) was 60.1%, the viability, T/C (second compound 1 µM, first compound 0.01 µM) was 49.5% and the viability, T/C [19] was 44.8%. For the same molecule, the viability, T/C [20] was 30.4%, the viability, T/C [21] was 35.1% and the viability, T/C [22] was 38.6%. The viability, T/C (second compound 3.16 µM, first compound 0.00316 µM) was 50.8%, the viability, T/C (second compound 3.16 µM, first compound 0.01 µM) was 48.6% and the viability, T/C [25] was 34%. For the same molecule, the viability, T/C [26] was 29.4%, the viability, T/C [27] was 34.9% and the viability, T/C [28] was 38.2%. The viability, T/C (second compound 10 µM, first compound 0.00316 µM) was 52.6%, the viability, T/C (second compound 10 µM, first compound 0.01 µM) was 41.3% and the viability, T/C [31] was 34.1%. The viability, T/C [32] was 37%, the viability, T/C [33] was 36.8% and the viability, T/C [34] was 37.5%.

Work on `NC1c2ccccc2OC12CCN(c1cnc3c(N4CCCc5ncccc54)n[nH]c3n1)CC2` (stereo not drawn) + CCn1c(-c2cccnc2C(C)OC)c2c3cc(ccc31)N1CCOC(CC(NC(=O)C(C(C)C)N(C)C(=O)C3(F)CCN(C(=O)C#CC(C)(C)N(C)C)CC3)C(=O)N3CCCC(N3)C(=O)OCC(C)(C)C2)C1 yielded an IC50 (second compound 0.000949 µM) of 2280 nM, an IC50 (second compound 0.003 µM) of 2040 nM and an IC50 (second compound 0.00949 µM) of 3210 nM. For the same molecule, the IC50 (second compound 0.03 µM) was 1850 nM, the IC50 (second compound 0.0949 µM) was 1120 nM and the IC50 (second compound 0.3 µM) was 329 nM. For the same molecule, the viability, T/C (second compound 0.000949 µM, first compound 0.0316 µM) was 89.6%, the viability, T/C (second compound 0.000949 µM, first compound 0.1 µM) was 80.3% and the viability, T/C (second compound 0.000949 µM, first compound 0.316 µM) was 54.3%. For the same molecule, the viability, T/C (second compound 0.000949 µM, first compound 1 µM) was 64.5%, the viability, T/C (second compound 0.000949 µM, first compound 3.16 µM) was 57.4% and the viability, T/C (second compound 0.000949 µM, first compound 10 µM) was 28.6%. It also gave a viability, T/C (second compound 0.003 µM, first compound 0.0316 µM) of 92.4%, a viability, T/C (second compound 0.003 µM, first compound 0.1 µM) of 76.2% and a viability, T/C (second compound 0.003 µM, first compound 0.316 µM) of 62.7%. For the same molecule, the viability, T/C (second compound 0.003 µM, first compound 1 µM) was 62.4%, the viability, T/C (second compound 0.003 µM, first compound 3.16 µM) was 54.4% and the viability, T/C (second compound 0.003 µM, first compound 10 µM) was 25.5%. The viability, T/C (second compound 0.00949 µM, first compound 0.0316 µM) was 82.3%, the viability, T/C (second compound 0.00949 µM, first compound 0.1 µM) was 77.1% and the viability, T/C (second compound 0.00949 µM, first compound 0.316 µM) was 69.1%. The viability, T/C (second compound 0.00949 µM, first compound 1 µM) was 64.6%, the viability, T/C (second compound 0.00949 µM, first compound 3.16 µM) was 51.9% and the viability, T/C (second compound 0.00949 µM, first compound 10 µM) was 28.3%. It also gave a viability, T/C (second compound 0.03 µM, first compound 0.0316 µM) of 91%, a viability, T/C (second compound 0.03 µM, first compound 0.1 µM) of 81.3% and a viability, T/C (second compound 0.03 µM, first compound 0.316 µM) of 69.8%. It also gave a viability, T/C (second compound 0.03 µM, first compound 1 µM) of 59.6%, a viability, T/C (second compound 0.03 µM, first compound 3.16 µM) of 41.1% and a viability, T/C (second compound 0.03 µM, first compound 10 µM) of 36.8%. It also gave a viability, T/C (second compound 0.0949 µM, first compound 0.0316 µM) of 75.1%, a viability, T/C (second compound 0.0949 µM, first compound 0.1 µM) of 71.7% and a viability, T/C (second compound 0.0949 µM, first compound 0.316 µM) of 62%. For the same molecule, the viability, T/C (second compound 0.0949 µM, first compound 1 µM) was 55%, the viability, T/C (second compound 0.0949 µM, first compound 3.16 µM) was 33.3% and the viability, T/C (second compound 0.0949 µM, first compound 10 µM) was 26.5%. For the same molecule, the viability, T/C (second compound 0.3 µM, first compound 0.0316 µM) was 68.2%, the viability, T/C (second compound 0.3 µM, first compound 0.1 µM) was 56.4% and the viability, T/C (second compound 0.3 µM, first compound 0.316 µM) was 52.8%. The viability, T/C (second compound 0.3 µM, first compound 1 µM) was 38.9%, the viability, T/C (second compound 0.3 µM, first compound 3.16 µM) was 33.5% and the viability, T/C (second compound 0.3 µM, first compound 10 µM) was 21.1%.

`CC(Nc1ccc2c(c1)OCCn1cc(N3C(=O)OCC3C(F)F)nc1-2)C(N)=O` (stereo not drawn) + C#Cc1c(F)ccc2cc(O)cc(-c3ncc4c(N5CC6CCC(C5)N6)nc(OCC56CCCN5CC(F)C6)nc4c3F)c12 showed an IC50 (second compound 0.0316 µM) of 437 nM, an IC50 (second compound 0.1 µM) of 184 nM and an IC50 (second compound 0.316 µM) of 106 nM. For the same molecule, the IC50 (second compound 1 µM) was 60.3 nM, the IC50 (second compound 3.16 µM) was < 31.6 nM and the IC50 (second compound 10 µM) was < 31.6 nM. For the same molecule, the viability, T/C [1] was 101%, the viability, T/C [2] was 82.8% and the viability, T/C [3] was 56.6%. For the same molecule, the viability, T/C [4] was 32.5%, the viability, T/C [5] was 22.3% and the viability, T/C [6] was 14.2%. It also gave a viability, T/C [7] of 75%, a viability, T/C [8] of 63.7% and a viability, T/C [9] of 37.3%. For the same molecule, the viability, T/C [10] was 22.4%, the viability, T/C [11] was 13.2% and the viability, T/C [12] was 8.11%. It also gave a viability, T/C [13] of 68%, a viability, T/C [14] of 51.2% and a viability, T/C [15] of 24.8%. The viability, T/C [16] was 8.79%, the viability, T/C [17] was 7.1% and the viability, T/C [18] was 4.15%. It also gave a viability, T/C [19] of 58.1%, a viability, T/C [20] of 43.7% and a viability, T/C [21] of 23%. The viability, T/C [22] was 9.54%, the viability, T/C [23] was 6.78% and the viability, T/C [24] was 3.29%. For the same molecule, the viability, T/C [25] was 46.5%, the viability, T/C [26] was 39.2% and the viability, T/C [27] was 14%. It also gave a viability, T/C [28] of 9.39%, a viability, T/C [29] of 5.47% and a viability, T/C [30] of 3.71%. It also gave a viability, T/C [31] of 44%, a viability, T/C [32] of 32.7% and a viability, T/C [33] of 19.8%. The viability, T/C [34] was 6.3%, the viability, T/C [35] was 5.27% and the viability, T/C [36] was 2.24%.
